{"source": "paper PMC3356383", "about": "“Efficacious Intermittent Dosing of a Novel JAK2 Inhibitor in Mouse Models of Polycythemia Vera” (PLoS ONE, 2012)", "key": {"TYK2 (JH1)": {"biological_target": "T1, TYK2 (JH1) (Homo sapiens, UniProt P29597)", "T1 construct": "TYK2 (JH1)", "T1 sequence (P29597 897-1176 limits assumed, species assumed)": "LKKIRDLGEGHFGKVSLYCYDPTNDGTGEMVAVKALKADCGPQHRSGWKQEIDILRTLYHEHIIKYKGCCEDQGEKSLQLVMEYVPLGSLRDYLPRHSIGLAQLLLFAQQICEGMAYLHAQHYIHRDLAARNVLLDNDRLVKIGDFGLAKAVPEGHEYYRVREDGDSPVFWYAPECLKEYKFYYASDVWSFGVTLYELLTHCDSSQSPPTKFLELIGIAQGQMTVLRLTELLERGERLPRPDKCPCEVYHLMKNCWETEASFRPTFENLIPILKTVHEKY", "test": "TYK2 enzyme assay, HTRF detection", "assay_type": "biochemical", "experimental": "JAK1, JAK2, JAK3, and TYK2 kinase activity assays were performed as described previously using HTRF detection technology and the peptide substrate amino hexanoyl biotin-EQEDEPEGDYFEWLE-NH2. Each reaction was incubated between 60 and 80 min at room temperature. Final conditions were as follows: JAK1, 400 pM enzyme, Hepes pH 7.5, 10 mM MgCl2, 0.01% Brij-35, 1 mM EGTA, 0.1 mg/ml BSA), 2 mM DTT, 2 µM peptide substrate, 25 µM MgATP, 5% DMSO and the desired concentration of subject compound; JAK2, 25 pM enzyme (JH1, JH1–JH2^wt, JH1–JH2^V617F domains), 2 µM peptide substrate, 15 µM MgATP, 5 mM MgCl2, 100 mM NaCl, 2 mM DTT, 0.1 mg/ml BSA, 50 mM Tris (pH 7.4), 5% DMSO and the desired concentration of subject compound; JAK3, 250 pM enzyme, 50 mM Hepes pH 7.5, 10 mM MgCl2, 0.01% Brij-35, 1 mM EGTA, 0.1 mg/ml BSA), 2 mM DTT, 2.0 µM peptide substrate, 25 µM MgATP, 5% DMSO, and the desired concentration of subject compound; TYK2, 125 pM enzyme, 50 mM Hepes pH 7.5, 10 mM MgCl2, 0.01% Brij-35, 1 mM EGTA, 0.1 mg/ml BSA, 2 mM DTT, 2.0 µM peptide substrate, 15 µM MgATP, 5% DMSO and the desired concentration of subject compound."}, "BaF3 (JAK2 V617F) cells [1]": {"tested_on": "BaF3 (JAK2 V617F) cells", "test": "Cell proliferation, ViaLight assay", "assay_type": "cell-based", "conditions": "Mus musculus, 48 hour", "experimental": "(§1) Cell proliferation was measured by ViaLight (Lonza Group Ltd) assay as follows. Cells (1000–2000) were seeded into 384-well plates and incubated 16 hours @ 37°C, 5% CO2. […] Cells were lysed and ATP detected as per the manufacturer protocol."}, "BaF3 (JAK2 WT) cells [2]": {"tested_on": "BaF3 (JAK2 WT) cells", "test": "Cell proliferation, ViaLight assay", "assay_type": "cell-based", "conditions": "Mus musculus, 48 hour, EPO-stimulated", "experimental": "as §1"}, "CTLL-2 cells": {"tested_on": "CTLL-2 cells", "test": "Cell proliferation, ViaLight assay", "assay_type": "cell-based", "experimental": "as §1"}, "H2122 cells": {"tested_on": "H2122 cells", "test": "Cell proliferation, ViaLight assay", "assay_type": "cell-based", "conditions": "Homo sapiens, NCI-H2122, 48 hour, epithelial lung cancer cell line", "experimental": "as §1"}, "BaF3 (JAK2 V617F) cells [3]": {"tested_on": "BaF3 (JAK2 V617F) cells", "test": "Cell apoptosis, ApoDirect assay", "assay_type": "cell-based", "conditions": "Mus musculus, 24 hour, ApoDirect measurement of fragmented DNA, read-out: Cell apoptosis, BaF3 (JAK2 V617F) (values shown are EC50)", "experimental": "(§2) Cell survival was measured by ApoDirect (BD Biosciences) assay as follows. BaF3 cells were grown at 37°C, 5% CO2, and aliquots (2 × 10^6) were treated with inhibitor (various concentration dissolved in DMSO) for 24 hours and then fixed and stained as per manufacturer protocol."}, "BaF3 (JAK2 WT) cells [4]": {"tested_on": "BaF3 (JAK2 WT) cells", "test": "Cell apoptosis, ApoDirect assay", "assay_type": "cell-based", "conditions": "Mus musculus, 24 hour, EPO-stimulated, ApoDirect measurement of fragmented DNA, read-out: Cell apoptosis, BaF3 (JAK2 WT) (values shown are EC50)", "experimental": "as §2"}, "[5]": {"tested_on": "darbepoetin-induced polycythemia and splenomegaly", "test": "Darbepoetin-induced model of polycythemia", "assay_type": "in vivo, C57BL/6 mice", "conditions": "7 days", "experimental": "C57BL/6 mice (Charles River Laboratories, Wilmington, MA) aged 4–6 weeks were dosed with MRLB-11055 in vehicle (10%v/v polysorbate 80) or with vehicle alone. All dosing was done by oral gavage (10 ml/kg body weight/day). Inhibition of darbepoetin-induced polycythemia and splenomegaly by MRLB-11055 was measured as described previously."}, "[6]": {"tested_on": "peripheral blood cell populations", "test": "Cell populations in peripheral blood of normal mice", "assay_type": "in vivo, C57BL/6 mice", "conditions": "54 mpk", "excerpt": "JAK2 and its family members JAK1 and JAK3 are known to signal downstream of cytokines that play essential roles in the development of lymphoid cell populations. To examine more thoroughly the effects of JAK2 inhibition on lymphoid cells, we analyzed wild-type (C57BL/6) mice treated with 54 mpk MRLB-11055 for 3 days, 6 days or up to 5 cycles of 3 days (“on”) followed by a 4 day holiday (“off”).\nSupplementary file pone.0037207.s005.doc: Table S3 Effect of MRLB-11055 on Cell Populations in Peripheral Blood of Normal Mice. Cell counts measured by Advia. Cycles refer to 3 days of treatment followed by a 4 day holiday. *p<0.01 and **p<0.001 in Student T test when comparing vehicle with treatment. HCT, hematocrit; RBC, red blood cells; HGB, hemoglobin; WBC, white blood cells. (DOC) Click here for additional data file."}, "[7]": {"conditions": "2 cycles (3 days treatment, 4 day holiday)"}, "[8]": {"conditions": "5 cycles (3 days treatment, 4 day holiday)"}}, "note": "Marks after values point to notes of the source that are not given here."}
{"compound": "NC(=O)c1cnc(N[C@H](C2CC2)C(F)(F)F)c2c1[nH]c1cc(-c3cnc(N)nc3)ccc12", "note": "[MRLB-11055]", "values": [{"measurement": "IC50", "setting": "TYK2 (JH1); HTRF, mean, n = 3, read-out: IC50, cell-free TYK2 (JH1)", "value": 0.18, "unit": "nM"}, {"measurement": "Selectivity for JAK2 over Tyk2", "setting": "TYK2 (JH1); cell-free assays", "value": 2, "unit": "fold"}, {"measurement": "IC50", "setting": "BaF3 (JAK2 V617F) cells [1]", "value": 29, "unit": "nM"}, {"measurement": "IC50", "setting": "BaF3 (JAK2 WT) cells [2]", "value": 14, "unit": "nM"}, {"measurement": "Fold more potent against IL-2-dependent CTLL cells than JAK2V617F BaF3 cells in proliferation assays", "setting": "CTLL-2 cells", "value": 2, "unit": "fold"}, {"measurement": "IC50", "setting": "CTLL-2 cells; Mus musculus, CTLL-2, 48 hour, Vialight", "value": 13, "unit": "nM"}, {"measurement": "IC50", "setting": "H2122 cells", "value": 1900, "unit": "nM"}, {"measurement": "EC50", "setting": "BaF3 (JAK2 V617F) cells [3]", "value": 135, "unit": "nM"}, {"measurement": "EC50", "setting": "BaF3 (JAK2 WT) cells [4]", "value": 260, "unit": "nM"}, {"measurement": "Effect on WBC", "setting": "[5]; 5, 15, 25 and 40 mpk once daily", "value": "dose-dependent trend towards WBC reduction, that did not reach statistical significance"}, {"measurement": "Efficacy, prevention of elevated hematocrit (Hct)", "setting": "[5]; 40 mpk orally once daily", "value": 76, "unit": "%"}, {"measurement": "Efficacy, prevention of elevated spleen weight (SPL)", "setting": "[5]; 40 mpk orally once daily", "value": 87, "unit": "%"}, {"measurement": "Baso-phils", "setting": "[6]; [7]", "value": "0.03 ± 0.01 * x 10^3/µl"}, {"measurement": "Eosino-phils", "setting": "[6]; [7]", "value": "0.14 ± 0.06 x 10^3/µl"}, {"measurement": "HCT", "setting": "[6]; [7]", "value": "51.6 ± 1.5* %"}, {"measurement": "HGB", "setting": "[6]; [7]", "value": "13.4 ± 0.4** g/dL"}, {"measurement": "Lympho-cytes", "setting": "[6]; [7]", "value": "6.2 ± 1.6 x 10^3/µl"}, {"measurement": "Mono-cytes", "setting": "[6]; [7]", "value": "0.04 ± 0.01 x 10^3/µl"}, {"measurement": "Neutro-phils", "setting": "[6]; [7]", "value": "0.78 ± 0.18 x 10^3/µl"}, {"measurement": "Platelets", "setting": "[6]; [7]", "value": "2244 ± 85** x 10^3/µl"}, {"measurement": "Platelets MPV", "setting": "[6]; [7]", "value": "6.9 ± 0.2** fL"}, {"measurement": "RBC", "setting": "[6]; [7]", "value": "9.65 ± 0.27* x 10^6/µl"}, {"measurement": "Retic", "setting": "[6]; [7]", "value": "803 ± 18** x 10^9/L"}, {"measurement": "WBC", "setting": "[6]; [7]", "value": "7.4 ± 1.7 x 10^3/µl"}, {"measurement": "Baso-phils", "setting": "[6]; [8]", "value": "0.04 ± 0.01 x 10^3/µl"}, {"measurement": "Eosino-phils", "setting": "[6]; [8]", "value": "0.06 ± 0.03 * x 10^3/µl"}, {"measurement": "HCT", "setting": "[6]; [8]", "value": "50.3 ± 0.6** %"}, {"measurement": "HGB", "setting": "[6]; [8]", "value": "13.0 ± 0.1** g/dL"}, {"measurement": "Lympho-cytes", "setting": "[6]; [8]", "value": "4.7 ± 1.5** x 10^3/µl"}, {"measurement": "Mono-cytes", "setting": "[6]; [8]", "value": "0.05 ± 0.01 x 10^3/µl"}, {"measurement": "Neutro-phils", "setting": "[6]; [8]", "value": "0.86 ± 0.34 x 10^3/µl"}, {"measurement": "Platelets", "setting": "[6]; [8]", "value": "2376 ± 171 ** x 10^3/µl"}, {"measurement": "Platelets MPV", "setting": "[6]; [8]", "value": "6.8 ± 0.1** fL"}, {"measurement": "RBC", "setting": "[6]; [8]", "value": "9.41 ± 0.13** x 10^6/µl"}, {"measurement": "Retic", "setting": "[6]; [8]", "value": "911 ± 64** x 10^9/L"}, {"measurement": "WBC", "setting": "[6]; [8]", "value": "5.9 ± 1.9* x 10^3/µl"}, {"measurement": "Baso-phils", "setting": "[6]; 3 days", "value": "0.03 ± 0.03 x 10^3/µl"}, {"measurement": "Eosino-phils", "setting": "[6]; 3 days", "value": "0.26 ± 0.09 x 10^3/µl"}, {"measurement": "HCT", "setting": "[6]; 3 days", "value": "50.4 ± 0.8** %"}, {"measurement": "HGB", "setting": "[6]; 3 days", "value": "13.7 ± 0.2** g/dL"}, {"measurement": "Lympho-cytes", "setting": "[6]; 3 days", "value": "4.2 ± 0.9** x 10^3/µl"}, {"measurement": "Mono-cytes", "setting": "[6]; 3 days", "value": "0.05 ± 0.02 x 10^3/µl"}, {"measurement": "Neutro-phils", "setting": "[6]; 3 days", "value": "0.61 ± 0.07 x 10^3/µl"}, {"measurement": "Platelets", "setting": "[6]; 3 days", "value": "1611 ± 85** x 10^3/µl"}, {"measurement": "Platelets MPV", "setting": "[6]; 3 days", "value": "6.6 ± 0.4", "unit": "fL"}, {"measurement": "RBC", "setting": "[6]; 3 days", "value": "9.29 ± 0.04** x 10^6/µl"}, {"measurement": "Retic", "setting": "[6]; 3 days", "value": "43 ± 6** x 10^9/L"}, {"measurement": "WBC", "setting": "[6]; 3 days", "value": "5.3 ± 1.0** x 10^3/µl"}, {"measurement": "Baso-phils", "setting": "[6]; 6 days", "value": "0.02 ± 0.01** x 10^3/µl"}, {"measurement": "Eosino-phils", "setting": "[6]; 6 days", "value": "0.19 ± 0.06 x 10^3/µl"}, {"measurement": "HCT", "setting": "[6]; 6 days", "value": "48.7 ± 2.5** %"}, {"measurement": "HGB", "setting": "[6]; 6 days", "value": "12.9 ± 0.5** g/dL"}, {"measurement": "Lympho-cytes", "setting": "[6]; 6 days", "value": "3.5 ± 0.4** x 10^3/µl"}, {"measurement": "Mono-cytes", "setting": "[6]; 6 days", "value": "0.05 ± 0.02 x 10^3/µl"}, {"measurement": "Neutro-phils", "setting": "[6]; 6 days", "value": "0.60 ± 0.16 x 10^3/µl"}, {"measurement": "Platelets", "setting": "[6]; 6 days", "value": "2534 ± 88** x 10^3/µl"}, {"measurement": "Platelets MPV", "setting": "[6]; 6 days", "value": "6.1 ± 0.2** fL"}, {"measurement": "RBC", "setting": "[6]; 6 days", "value": "8.80 ± 0.39** x 10^6/µl"}, {"measurement": "Retic", "setting": "[6]; 6 days", "value": "162 ± 24** x 10^9/L"}, {"measurement": "WBC", "setting": "[6]; 6 days", "value": "4.6 ± 0.6** x 10^3/µl"}]}
